The record followed here is patent US10023836B2, “Medium for yeasts” (YAMAGUCHI UNIVERSITY, priority 2012, dated 2018).

Test [1] has as its system commercially available baker's yeast. Description: Aspartic acid swapped with ammonium sulfate, compared with MM and YPD (FIG. 2). It is filed as cell-based. The following applies: between 0.5 and 2.0% aspartic acid added. The method, then: In Table 4, a culture medium was prepared in which aspartic acid (Asp), which had the highest value for OD600 after 48 hours, was swapped with ammonium sulfate, and the proliferation of yeast (commercially available baker's yeast) in the MM culture medium and YPD was compared. […] Based on this information, a BM culture medium in which 2% aspartic acid had been added as a nitrogen source to 0.17% YNB and 2% glucose was used as an object of investigation.

Another test deals with RAK2683 yeast strain. Description: Investigation of nitrogen source used singly in MM culture medium instead of ammonium sulfate (Table 4). It is filed as cell-based, Saccharomyces cerevisiae. Particulars: Table 4 conditions.
For test [2], the system named is Saccharomyces cerevisiae RAK3599 strain. Description: Leucine concentration in AKD culture medium, RAK3599 strain (FIG. 16B). It is filed as cell-based.
Test [3] has as its system Saccharomyces cerevisiae leucine-requiring RAK778 strain (BY4712 (leu2Δ0) strain). Put plainly: Leucine concentration in AKD culture medium, leucine-requiring strain (FIG. 16A). It is filed as cell-based. An excerpt:
Leucine concentration in the AKD culture mediums was adjusted to 0%, 0.0001%, 0.001%, 0.01%, 0.1%, and 1%, respectively, and proliferation of a Saccharomyces cerevisiae leucine-requiring RAK778 strain (BY4712 (leu2Δ0) strain) was investigated. […] Given the above-noted results, a preferred leucine concentration was understood to be around 0.1%.

Test [4] deals with Candida utilis JCM9624 strain. Description: Nutritional requirements in AYD culture medium (FIG. 51). The following applies: component eliminated from AYD culture medium. It is filed as cell-based. The method, then: (§1) In a case where no special provisions are made, a procedure for a cultivation experiment using the culture medium to be investigated for proliferation was such that a yeast undergoing investigation was pre-cultured in a YPD liquid culture medium at 28° C. for 24 hours, after which the yeast was adjusted such that OD600=20. […] In addition, OD600 was measured every 15 minutes by a spectrophotometer (Cell density meter co8000, WPA). Hereafter, data is represented by graphs for a case using the automatic spectrophotometer; however, these graphs are primarily used to compare the slope of logarithmic growth phase proliferation curves for each culture medium, and because OD600 is measured without dilution, values where OD600=3 to 3.5 or more may be incorrect.
(§2) Each of the yeast strains was cultured under identical conditions using the basic culture method described above.

The subject of test [5] is Candida albicans JCM1542 strain. Description: Nutritional requirements in AYD culture medium (FIG. 52). It is filed as cell-based. Particulars: component eliminated from AYD culture medium. As for the experimental part: as §1, §2
A further test has as its system RAK3599 strain. Put plainly: Vitamin and FeCl3 concentration in AKD′ culture medium (FIGS. 22 to 28). It is filed as cell-based, Saccharomyces cerevisiae. The following applies: for proliferation at a content of 0: AKD′ culture medium without the substance. As for the experimental part: as §1
Pyridoxine concentration in the AKD′ culture medium was adjusted to 0, 0.004, 0.04, 0.4, 4, and 40 μg/mL, respectively, and proliferation of the RAK3599 strain was investigated.
Pantothenic acid concentration in the AKD′ culture medium was adjusted to 0, 0.004, 0.04, 0.4, 4, and 40 μg/mL, respectively, and proliferation of the RAK3599 strain was investigated.
Thiamine concentration in the AKD′ culture medium was adjusted to 0, 0.004, 0.04, 0.4, 4, and 40 μg/mL, respectively, and proliferation of the RAK3599 strain was investigated.
Nicotinic acid concentration in the AKD′ culture medium was adjusted to 0, 0.004, 0.04, 0.4, 4, and 40 μg/mL, respectively, and proliferation of the RAK3599 strain was investigated.
Myo-inositol concentration in the AKD′ culture medium was adjusted to 0, 0.02 μg/mL, 0.2 μg/mL, 2 μg/mL, 20 μg/mL, and 200 μg/mL, respectively, and proliferation of the RAK 3599 strain was investigated.
FeCl3 concentration in the AKD′ culture medium was adjusted to 0, 0.002, 0.02, 0.2, 2, and 20 μg/mL, respectively, and proliferation of the RAK3599 strain was investigated.

Test [6] deals with Candida glabrata BY23876 strain. Description: Nutritional requirements in AYD culture medium (FIG. 50). It is filed as cell-based. The following applies: component eliminated from AYD culture medium. As for the experimental part: In a case where no special provisions are made, a procedure for a cultivation experiment using the culture medium to be investigated for proliferation was such that a yeast undergoing investigation was pre-cultured in a YPD liquid culture medium at 28° C. for 24 hours, after which the yeast was adjusted such that OD600=20. Thereafter, 5 μL of culture solution was inoculated in 5 mL of each culture medium to be investigated, which had been dispensed into L-shaped test tubes (final OD60=0.02); aerobic roller tube culture was performed at 28° C.; and OD was continuously measured with an automatic spectrophotometer (BioPhoto recorder TVS062CA, […]). In addition, OD600 was measured every 15 minutes by a spectrophotometer (Cell density meter co8000, WPA). Hereafter, data is represented by graphs for a case using the automatic spectrophotometer; however, these graphs are primarily used to compare the slope of logarithmic growth phase proliferation curves for each culture medium, and because OD600 is measured without dilution, values where OD600=3 to 3.5 or more may be incorrect.
Nutritional requirements of each of the following yeast strains were investigated in the AYD culture medium, and utility of the AYD culture medium was confirmed. Each of the yeast strains was cultured under identical conditions using the basic culture method described above.

Test [7] concerns commercially available baker's yeast. Description: Investigation of carbon source added instead of glucose in BM culture medium (FIG. 5). It is filed as cell-based. Particulars: 2% added singly instead of glucose in BM culture medium, 28° C., 24 hours. As for the experimental part:
OD600 was measured after commercially available baker's yeast had been cultivated at 28° C. for 24 hours in a culture medium in which 2% of sugars such as galactose, raffinose, trehalose, fructose, maltose, mannose, sucrose, and ribose, or DNA (negative control) had been added instead of glucose in the BM culture medium.

Structures can show the parent of a compound that is named as a salt.

Take `N[C@@H](CC(=O)[O-])C(=O)[O-].O.[Na+].[Na+]` [Aspartic acid, L-Aspartic acid sodium salt monohydrate]: in [1], the “proliferation compared with ammonium sulfate-added culture medium” value was “proliferation markedly improved over that of a culture medium to which ammonium sulfate had been added”. Further, the “proliferation when added singly as nitrogen source” value in the test with RAK2683 yeast strain is recorded as “favorable proliferation”.
Take `CC(C)C[C@H](N)C(=O)O` [Leucine, L-Leucine]: the “concentration at which proliferation was inhibited” value in test [2] stood at 1%. In test [3], the “concentration at which almost no proliferation was observed” value was “less than 0.001%”, the “concentration at which proliferation reached a maximum value” is reported as 0.1% and the “concentration at which proliferation was inhibited” value worked out at 1%. In addition, the preferred concentration result in [3] (from results with RAK778 and RAK3599 strains) is listed as “around 0.1%”.
With `O=S(=O)([O-])[O-].[Zn+2]` [Zn2+, zinc sulfate], the “nutritional requirement of the strain” value in test [4] and in [5] was “preferable for proliferation” each time.
Take `O=C(O)CCCC[C@@H]1SC[C@@H]2NC(=O)N[C@@H]21` [biotin]: the “concentration at which proliferation was slightly inhibited” value in the test on RAK3599 strain (AKD′ culture medium) was 200 µg/L. In addition, the preferred concentration entry in the test on RAK3599 strain (AKD′ culture medium) was “around 2 μg/L”. The “proliferation at a content of 0” value in the test with RAK3599 strain is “Almost no proliferation”. In addition, the “nutritional requirement of the strain” value in test [4] is listed as “not require”; in test [5], “require”; in test [6] it was “require”.
Turning to `O=C[C@H](O)[C@H](O)[C@H](O)CO` [ribose], in test [7], the “proliferation as carbon source” value is on record as “no proliferation whatsoever”.
In the case of `Cc1ncc(C[n+]2csc(CCO)c2C)c(N)n1` [thiamine, Thiamine hydrochloride], the preferred concentration result in the test with RAK3599 strain (AKD′ culture medium) is “around 400 μg/L”. For the same molecule, the “proliferation at a content of 0” value in the test on RAK3599 strain is given as “A fair degree of proliferation”. In addition, the “nutritional requirement of the strain” value in test [4] and in [6] was “require” in each case.
Take `OC[C@H]1O[C@H](O[C@H]2O[C@H](CO)[C@@H](O)[C@H](O)[C@H]2O)[C@H](O)[C@@H](O)[C@@H]1O` [trehalose]: the “proliferation as carbon source” value in test [7] was “no proliferation whatsoever”.
